According to patent US20220378928A1, “A Camptothecin Drug and Its Antibody Conjugate Thereof” (priority 2020, published 2022):
Where two headings read alike, the source gives them in different places.

Assays:
Assay in all cases: Camptothecin drug cellular activity test (MTS cell proliferation)
Format in all cases: cell-based, human
[1] = system: BXPC-3; conditions: read-out: Cell Viability, BXPC-3
Procedure: (§1) The cytotoxic activity of camptothecin drugs was determined by the following experimental process: Camptothecin drugs were added to cell culture media that grows human tumors cells that express A431, Fadu, Bxpc-3 (EGFR-positive cells) and U87-MG, SW620 (negative control cells). Cell survival rates were measured after the cells were cultured for 72 hours. Cell-based in vitro experiments are used to determine cell survival rate, cytotoxicity, and programmed cell death induced by the camptothecin drug of the present application.
(§2) The in vitro efficacy of the camptothecin drugs was determined by cell proliferation test. CellTiter 96® Aqueous One Solution Cell Proliferation Assay is commercially available (Promega Corp., Madison, Wis.). CellTiter 96® AQueous One Solution Cell Proliferation Assay(a) is a colorimetric method to detect the number of living cells in cell proliferation and cytotoxicity experiments. This reagent contains a novel tetrazolium compound [3-(4, 5-dimethylthiazol-2-yl)-5-(3-carboxymethoxyphenyl)-2-(4-sulfophenyl)-2H-tetrazolium, inner salt; MTS] and an electronic coupling agent (phenazine ethosulfate; PES). PES has enhanced chemical stability, which allows it to be mixed with MTS to form a stable solution. This convenient “single solution” mode is an improvement on the basis of the first generation CellTiter 96*AQueous Assay. The electronic coupling agent PMS and MTS solution used in the CellTiter 96*AQueous Assay are provided separately. MTS (Owen's reagent) is reduced by cell organisms into a colored formazan product (Illustration 1), which can be directly dissolved in the culture medium.
(§3) The conversion in all likelihood is completed under the action of NADPH or NADH produced by dehydrogenases in metabolically active cells. When testing, just add a small amount of CellTiter 96® AQueous One Solution Reagent directly to the culture plate well, incubate for 1-4 hours, and then read the absorbance value at 490 nm with a microplate reader.
(§4) The amount of formazan detected at 490 nm is directly proportional to the number of viable cells in culture. Since the formazan product of MTS is soluble in tissue culture medium, CellTiter 96® AQueous One Solution Assay has fewer steps than MTT or INT methods.
(§5) In the present application, A431, Fadu, Bxpc-3 (EGFR positive expressing cells) and U87-MG, SW620 (negative control cells) are used as the research system for in vitro drug efficacy detection. In a 96-well plate, use an appropriate cell density for plating, and after 24 hours, add camptothecin. After 24 hours, dilute the camptothecin drug with the test medium (1 uM start, 5-fold dilution, 9 concentrations, add test medium in the tenth column as a blank control), and add the diluted camptothecin drug to the corresponding cell wells. The cell wells were then shaken with a microplate shaker (model: MX100-4A) for 3 minutes at a shaking speed of 550 rpm/min. After shaking, they were placed in a carbon dioxide incubator and incubated for 3 days. After 3 days, add 20 uL MTS (Promega, G3581) to each well for 2 hours, and the microplate reader (Molecular Device, model: SpectraMAX190) reads at […]. By detecting the activity of dehydrogenase in mitochondria, the inhibitory effect of camptothecin drugs on cell proliferation was evaluated.

[2] = system: Fadu; conditions: read-out: Cell Viability, Fadu
Procedure: as §1, §2, §3, §4, §5

[3] = system: SW620; conditions: read-out: Cell Viability, SW620
Procedure: as §1, §2, §3, §4, §5

[4] = system: A431; conditions: read-out: Cell Viability, A431
Procedure: as §1, §2, §3, §4, §5

[5] = system: U87-MG; conditions: read-out: Cell Viability, U87-MG
Procedure: as §1, §2, §3, §4, §5

[6] = Homo sapiens, 72 h, BXPC-3, EGFR-positive cells, 3 days incubation, MTS
[7] = Homo sapiens, 72 h, Fadu, EGFR-positive cells, 3 days incubation, MTS
[8] = Homo sapiens, SW-620, 72 h, SW620, negative control cells, 3 days incubation, MTS
[9] = Homo sapiens, A-431, 72 h, A431, EGFR-positive cells, 3 days incubation, MTS
[10] = Homo sapiens, U-87 MG, 72 h, U87-MG, negative control cells, 3 days incubation, MTS

Row | Structure (SMILES) | IC50 [1, 6] [nM] | IC50 [2, 7] [nM] | IC50 [3, 8] [nM] | IC50 [4, 9] [nM] | IC50 [5, 10] [nM] | IC50 ([1]; Homo sapiens, BXPC-3, 72 h) [nM] | IC50 ([2]; Homo sapiens, FaDu, 72 h) [nM] | IC50 ([3]; Homo sapiens, SW-620, 72 h) [nM] | IC50 ([4]; Homo sapiens, A-431, 72 h) [nM] | IC50 ([5]; Homo sapiens, U-87 MG, 72 h) [nM] | other results
1 | CC[C@@]1(O)C(=O)OCc2c1cc1n(c2=O)Cc2c-1nc1cc(F)c(C)c3c1c2[C@@H](NC(=O)[C@H](C)O)CC3 [Compound 2] | 38.8 | 11.1 | 10.4 | 40.9 | 7.4 |  |  |  |  |  | 
2 | CC[C@@]1(O)C(=O)OCc2c1cc1n(c2=O)Cc2c-1nc1cc(F)c(C)c3c1c2[C@H](NC(=O)[C@H](O)C(F)(F)F)CC3 [Compound 12] | 1.6 | 0.002 | 0.06 | 15.5 | 0.06 |  |  |  |  |  | 
3 | CC[C@@]1(O)C(=O)OCc2c1cc1n(c2=O)Cc2c-1nc1cc(F)c(C)c3c1c2[C@H](NC(=O)[C@@H](O)C(F)(F)F)CC3 [Compound 13] | 40 | 0.06 | 1.06 | 6.37 | 0.32 to 1.6 |  |  |  |  |  | 
4 | CC[C@@]1(O)C(=O)OCc2c1cc1n(c2=O)Cc2c-1nc1cc(F)c(C)c3c1c2[C@@H](NC(=O)C1(O)CCCC1)CC3 [Compound 25] |  |  |  |  |  | 15.8 | 41 | 1.5 | 11.7 | 10.4 | 
5 | CC[C@@]1(O)C(=O)OCc2c1cc1n(c2=O)Cc2c-1nc1cc(F)c(C)c3c1c2[C@@H](NC(=O)C(O)c1ccccc1)CC3 (stereo partly drawn) [Compound 28] |  |  |  |  |  | 81 | 14.2 | 11.9 | 5.12 | 18.3 | 
6 | CC[C@@]1(O)C(=O)OCc2c1cc1n(c2=O)Cc2c-1nc1cc(F)c(C)c3c1c2[C@@H](NC(=O)[C@H](O)c1cc(F)cc(F)c1)CC3 [Compound 29] |  |  |  |  |  | 90.1 | 41.3 | 2.15 | 19.6 | 23.6 | 
7 | CC[C@@]1(O)C(=O)OCc2c1cc1n(c2=O)Cc2c-1nc1cc(F)c(C)c3c1c2[C@@H](NC(=O)[C@H](O)c1ccc2c(c1)OCO2)CC3 [Compound 30] |  |  |  |  |  | 34.2 | 19.2 | 2.25 | 19.9 | 29.9 | 
8 | CC[C@H](O)C(=O)N[C@H]1CCc2c(C)c(F)cc3nc4c(c1c23)Cn1c-4cc2c(c1=O)COC(=O)[C@]2(O)CC [Compound 31] |  |  |  |  |  | 55.4 | 17.5 | 17.5 | 14.8 | 10.8 | 
9 | CCc1c2c(nc3ccc(O)cc13)-c1cc3c(c(=O)n1C2)COC(=O)[C@]3(O)CC [SN38, reference compound] |  |  |  |  |  |  |  |  |  |  | IC50 ([1]; BXPC-3, EGFR-positive cells, 3 days incubation, MTS): 120 nM; IC50 ([2]; Fadu, EGFR-positive cells, 3 days incubation, MTS): 42.1 nM; IC50 ([3]; SW620, negative control cells, 3 days incubation, MTS): 3.28 nM; IC50 ([4]; A431, EGFR-positive cells, 3 days incubation, MTS): 13.6 nM; IC50 ([5]; U87-MG, negative control cells, 3 days incubation, MTS): 15.7 nM
